Experimental data from PMC10301432, “Antiplasmodial, Trypanocidal, and Genotoxicity In Vitro Assessment of New Hybrid α,α-Difluorophenylacetamide-statin Derivatives” (Pharmaceuticals, 2023).
“Also recorded” adds a separate entry of the source. Where two headings read alike, the source gives them in different places.

What was measured:
[1] = system: T. cruzi; experiment: Trypanocidal in vitro phenotypic screening, overall outcome; type: cell-based, Trypanosoma cruzi; conditions: summarized outcome
Method: (§1) Bloodstream trypomastigote forms (BT) of the Y strain were obtained from infected albino Swiss mice at the peak of parasitemia, isolated by differential centrifugation and resuspended in DMEM to a parasite concentration of 10^7 cells/mL in the presence of 10% of mouse blood. This suspension (100 µL) was added in the same volume of 13 (a–d) and 14 (a–d) previously prepared at twice the desired final concentrations.
Tissue culture-derived trypomastigotes (Tulahuen strain expressing the E. coli β-galactosidase gene) were maintained in L929 cell lines and collected from the supernatant after 96 h of parasite infection, following previously established protocols. Briefly, after 24 h of L929 platting (4 × 10^3 cells/well), the cultures were incubated with trypomastigotes (10:1 parasite/host cell ratio) for 2 h at 37 °C. Then, the cell cultures were rinsed to remove non-internalized parasites and then further incubated for 24 h at 37 °C. Then the infected cultures were followed using two sequential protocols. […] After this period, 50 µL chlorophenol red glycoside (500 µM) in 0.5% Nonidet P40 was added to each well and the plate was incubated for more than 18 h at 37 °C, after which the absorbance was measured at 570 nm. Then, the compounds were next evaluated using dose–response assays in which Tulahuen-infected-L929 cells were exposed to different non-toxic concentrations of each compound (0–50 µM) and then after 96 h of incubation the same procedure was conducted as above reported. Controls with untreated and Bz-treated cells are run in parallel. The results were expressed as the percent difference in the reduction between treated and untreated cells.

[2] = system: Salmonella enterica serovar Typhimurium TA98; experiment: Salmonella/microsome assay, TA98
Method: (§2) Salmonella enterica serovar Typhimurium (S. typhimurium) strains TA97, TA98, TA100, TA104 and TA102 from the authors’ stock were used as described in the mutagenicity assay.
(§3) To determine the cytotoxic effects, after 30 min pre-incubation, the assay mixtures were diluted in 0.9% NaCl (w/v) to obtain a suspension containing 2 × 10^2 cells/mL. […] The plates were then incubated at 37 °C for 24 h and the colonies counted. All the experiments were conducted in triplicate and were repeated at least twice. Statistical differences between the groups were analyzed by a two-way ANOVA (p < 0.05) and Tukey’s post hoc test.

[3] = system: S. typhimurium TA97, TA98, TA100, TA102 and TA104 strains; experiment: Salmonella/microsome assay, overall outcome; conditions: all strains, −S9 and +S9; summarized outcome
Method: The mutagenicity reverse mutation test was carried out to investigate the potential of 13 (a–d) to induce genetic mutation in S. typhimurium TA97, TA98, TA100, TA102 and TA104 strains. The test was carried out according to the pre-incubation method, both in the absence and presence of a metabolic activation system (4% S9 mix, Aroclor-pre-induced, from Moltox Inc., Boone, NC, USA). DMSO 10% served as the negative control while known mutagens were used as the positive control substances. […] A dose-finding test was carried out with and without the metabolic activation system (S9 mix) for each tester strain.
For the assays without metabolic activation, 0.5 mL of 0.1 mol/L sodium-phosphate buffer (pH 7.4) was added, and for the assays in the presence of metabolic activation, 0.5 mL S9 mix was mixed with 0.1 mL culture medium (2 × 10^8 cells/mL) plus 0.1 mL of each compound solutions. The mixtures were incubated in a shaker at 37 °C (pre-incubation). After 30 min pre-incubation under light protection, the mixture was added to and mixed with 2 mL top agar containing 0.05 mmol/L L-histidine and D-biotin for the S. typhimurium strains. Each of these was then spread on a minimum glucose agar plate. After the top agar solidified, the plates were incubated at 37 °C for 60–72 h. Each tester strain was assayed in triplicate, and the number of revertant colonies was counted for each tester strain and treatment group [58].

[4] = system: trypomastigote forms of T. cruzi (Y strain); experiment: Trypanocidal activity on bloodstream trypomastigotes; type: cell-based, Trypanosoma cruzi; conditions: for SI: LC50 (cardiac cells)/EC50 (trypomastigotes); for EC50: Trypanosoma cruzi, bloodstream trypomastigotes, Y strain, 24 h at 37 °C
Method: as §1

[5] = system: P. falciparum parasites (W2 clone) chloroquine-resistant; experiment: Antiplasmodial activity, anti-HRPII assay; type: cell-based, Plasmodium falciparum; conditions: for SI: LC50 (HepG2)/EC50 (P. falciparum); for EC50: P. falciparum W2 clone, 24 h at 37 °C, read-out: EC50; for Antiplasmodial Activity: summarized outcome
Excerpt: P. falciparum W2 clone was maintained in continuous culture as previously described. […] Prior to testing, the ring-stage parasites were synchronized using sorbitol.
The test quantification was read at 450 nm on a spectrophotometer (SpectraMax340PC384, Molecular Devices Sunnyvale, CA, USA), and the drug activity was expressed as the half-maximal inhibitory concentration (EC50) compared to the drug-free controls using the curve-fitting software Origin 8.0 (OriginLab Corporation, Northampton, MA, USA).

[6] = system: HepG2 cells; experiment: In vitro micronuclei assay, HepG2; type: cell-based, human; conditions: HepG2; 3 h of exposure
Method: (§4) Fresh HepG2 and CHO-K1 cells were seeded at the density of 1 × 10^5 cells/mL into 24-well plates (1 mL/per well). The compounds 13 (a–d) were then added to the medium to final concentrations of 500, 1000 and 2000 µM and incubation continued for 3 h or 24 h. DMSO 10% was used as the negative control, and, BaP (80 µM) for HepG2 and MMC (5 µM) for CHO-K1 were the positive controls. After exposure to the compounds, the cells were incubated for more than 24 h under growth conditions before quantification of the micronuclei and cytotoxicity. The cytogenetic studies were carried out in triplicate as described previously (see [51]). In order to determine the mitotic index and the number of cells with micronuclei, the medium was replaced by a cold methanol-glacial acetic acid (3:1) fixative for 30 min, and the cells then rinsed with distilled water for 2 min and air dried. The fixed cells were stained with 4,6-diamidino-2-phenylindole (DAPI) ([…]) dissolved in McIlvaine buffer (0.1 M citric acid plus 0.2 M Na2HPO4, pH 7.0) for 60 min, washed with McIlvaine buffer for 5 min, briefly rinsed with distilled water and mounted in glycerol. To determine the mitotic index and the number of cells with micronuclei, 1000 cells per well (3000 cells per concentration) were analyzed under a fluorescence microscope. The results for micronuclei were presented as the percentage of cells containing micronuclei in the 3000 cells/concentration group analyzed. Cells that glowed brightly and had homogenous nuclei were considered as having normal phenotypic morphology. Apoptotic nuclei were identified by the condensed chromatin at the periphery of the nuclear membrane or by fragmented nuclear body morphology. Necrotic cells presented chromatin forms with irregularly shaped aggregates, a pyknotic nucleus (shrunken and darkly stained) and cell membrane disruption, with cellular debris spilled into the extracellular milieu. Once again, 3000 cells were counted and the percentage of viable cells was evaluated, discounting apoptotic and necrotic cells. Statistical differences between the groups were analyzed by two-way ANOVA (p < 0.01) and Tukey’s post hoc test.

[7] = Salmonella/microsome assay, TA104; conditions: Salmonella enterica serovar Typhimurium, S. typhimurium TA104 with S9 mix, LC50 (bacterial cytotoxicity) TA104, presence of S9 mix
Method: as §2, §3

[8] = system: Salmonella enterica serovar Typhimurium TA104; experiment: Salmonella/microsome assay, TA104
Method: as §2, §3

[9] = system: CHO-K1 and HepG2 cell lineages; type: cell-based
Method: as §4, with “Necrotic cells presented chromatin forms with irregularly shaped aggregates, a pyknotic nucleus (shrunken and darkly stained) and cell membrane disruption, with cellular debris spilled into the extracellular milieu.” left out

[10] = Plasmodium falciparum, W2, 24 h

Compound: CC(=O)Nc1ccc(Cl)cc1C(F)(F)C(=O)NCC[C@@H]1C[C@H](CC(=O)OC(C)(C)C)OC(C)(C)O1 [Compound 13c, tert-Butyl 2-((4R,6R)-6-(2-(2-(2-acetamido-5-chlorophenyl)-2,2-difluoroacetamido)ethyl)-2,2-dimethyl-1,3-dioxan-4-yl)acetate]
- Trypanocidal Activity [1]: Yes
- revertant His+ colonies TA98 ([2]; +S9, 3 µM): 34 ± 4
- revertant His+ colonies TA98 ([2]; +S9, 15 µM): 35 ± 3
- revertant His+ colonies TA98 ([2]; +S9, 30 µM): 39 ± 3
- revertant His+ colonies TA98 ([2]; +S9, 150 µM): 37 ± 7
- revertant His+ colonies TA98 ([2]; +S9, 300 µM): 47 ± 4
- revertant His+ colonies TA98 ([2]; +S9, 1500 µM): 49 ± 5
- revertant His+ colonies TA98 ([2]; −S9, 3 µM): 21 ± 2
- revertant His+ colonies TA98 ([2]; −S9, 15 µM): 21 ± 5
- revertant His+ colonies TA98 ([2]; −S9, 30 µM): 21 ± 3
- revertant His+ colonies TA98 ([2]; −S9, 150 µM): 21 ± 2
- revertant His+ colonies TA98 ([2]; −S9, 300 µM): 21 ± 1
- revertant His+ colonies TA98 ([2]; −S9, 1500 µM): 23 ± 4
- Bacterial Mutagenicity [3]: not mutagenic and No
- SI [4]: >17.7
- EC50 [4]: 28.2 ± 0.75 µM
- SI [5]: >85
- EC50 [5]: 11.8 ± 2 µM
- EC50 [5, 10]: < 14 µM
- Antiplasmodial Activity [5]: Yes
- micronuclei formation (genotoxicity) [6]: did not induce micronuclei formation
- CC50 at 30 min [7]: 1390 ± 14.8 µM
- revertant His+ colonies TA104 ([8]; +S9, 3 µM): 384 ± 34
- revertant His+ colonies TA104 ([8]; +S9, 15 µM): 401 ± 31
- revertant His+ colonies TA104 ([8]; +S9, 30 µM): 445 ± 49
- revertant His+ colonies TA104 ([8]; +S9, 150 µM): 305 ± 7
- revertant His+ colonies TA104 ([8]; +S9, 300 µM): 297 ± 4
- revertant His+ colonies TA104 ([8]; +S9, 1500 µM): Cytotoxic
- CC50 ([8]; read-out: LC50 (bacterial cytotoxicity) TA104, presence of S9 mix): > 1200 µM
- revertant His+ colonies TA104 ([8]; −S9, 3 µM): 195 ± 9
- revertant His+ colonies TA104 ([8]; −S9, 15 µM): 199 ± 7
- revertant His+ colonies TA104 ([8]; −S9, 30 µM): 192 ± 3
- revertant His+ colonies TA104 ([8]; −S9, 150 µM): 201 ± 17
- revertant His+ colonies TA104 ([8]; −S9, 300 µM): 206 ± 8
- revertant His+ colonies TA104 ([8]; −S9, 1500 µM): 241 ± 10

Compound: CC(=O)Nc1ccc(Br)cc1C(F)(F)C(=O)NCC[C@@H]1C[C@H](CC(=O)OC(C)(C)C)OC(C)(C)O1 [Compound 13d, tert-Butyl 2-((4R,6R)-6-(2-(2-(2-acetamido-5-bromophenyl)-2,2-difluoroacetamido)ethyl)-2,2-dimethyl-1,3-dioxan-4-yl)acetate]
- Trypanocidal Activity [1]: Yes
- revertant His+ colonies TA98 ([2]; +S9, 3 µM): 28 ± 1
- revertant His+ colonies TA98 ([2]; +S9, 15 µM): 28 ± 5
- revertant His+ colonies TA98 ([2]; +S9, 30 µM): 31 ± 7
- revertant His+ colonies TA98 ([2]; +S9, 150 µM): 34 ± 2
- revertant His+ colonies TA98 ([2]; +S9, 300 µM): 34 ± 4
- revertant His+ colonies TA98 ([2]; +S9, 1500 µM): 35 ± 3
- revertant His+ colonies TA98 ([2]; −S9, 3 µM): 22 ± 7
- revertant His+ colonies TA98 ([2]; −S9, 15 µM): 23 ± 5
- revertant His+ colonies TA98 ([2]; −S9, 30 µM): 25 ± 1
- revertant His+ colonies TA98 ([2]; −S9, 150 µM): 25 ± 1
- revertant His+ colonies TA98 ([2]; −S9, 300 µM): 27 ± 5
- revertant His+ colonies TA98 ([2]; −S9, 1500 µM): Cytotoxic
- Bacterial Mutagenicity [3]: Yes
- SI [4]: >21.6
- EC50 [4]: 23.2 ± 3.13 µM
- Mammalian Cell Genotoxicity [9]: Yes
- SI [5]: Inactive
- EC50 [5, 10]: > 89 µM
- Antiplasmodial Activity [5]: No
- cytotoxicity (survival rate) in micronuclei assay [6]: non-cytotoxic
- micronuclei formation (genotoxicity) [6]: induced a significant micronuclei formation; also recorded: induced genotoxicity
- revertant His+ colonies TA104 ([8]; +S9, 3 µM): 490 ± 52
- revertant His+ colonies TA104 ([8]; +S9, 15 µM): 513 ± 19
- revertant His+ colonies TA104 ([8]; +S9, 30 µM): 530 ± 7
- revertant His+ colonies TA104 ([8]; +S9, 150 µM): 541 ± 29
- revertant His+ colonies TA104 ([8]; +S9, 300 µM): 589 ± 5
- revertant His+ colonies TA104 ([8]; +S9, 1500 µM): 591 ± 11
- revertant His+ colonies TA104 ([8]; −S9, 3 µM): 469 ± 65
- revertant His+ colonies TA104 ([8]; −S9, 15 µM): 515 ± 61
- revertant His+ colonies TA104 ([8]; −S9, 30 µM): 570 ± 53
- revertant His+ colonies TA104 ([8]; −S9, 150 µM): 605 ± 61
- revertant His+ colonies TA104 ([8]; −S9, 300 µM): 615 ± 15
- revertant His+ colonies TA104 ([8]; −S9, 1500 µM): 620 ± 31
